# Measurements reported in US11708348B2, “Protease inhibitors for treatment of coronavirus infections” (The Scripps Research Institute, priority 2021, dated 2023).
# Like-named read-outs stand apart in the source and are kept apart here.
# Test system: SARS-CoV-2 strain USA-WA1/2020
# Assay: microbe, parasite or virus in culture
# Assay type: cell-based
# [1] = Severe acute respiratory syndrome coronavirus 2, HeLa-ACE2, 24 h, HeLa-ACE2 cells, SARS-CoV-2 infection, 24 h; class symbols; read-out: EC50, uM (Hela)
# [2] = Severe acute respiratory syndrome coronavirus 2, HeLa-ACE2, 24 h, HeLa-ACE2 cells, SARS-CoV-2 infection, 24 h; read-out: EC50, uM (Hela)
compound,measurement,setting,value
"CC(C)C[C@H](NC(=O)C(=O)Nc1ccccc1F)C(=O)N[C@@H](C[C@@H]1CCNC1=O)C(=O)COc1cc(C(F)(F)F)on1 [Compound 141, N1-(2-fluorophenyl)-N2-((S)-4-methyl-1-oxo-1-(((S)-3-oxo-1-((S)-2-oxopyrrolidin-3-yl)-4-((5-(trifluoromethyl)isoxazol-3-yl)oxy)butan-2-yl)amino)pentan-2-yl)oxalamide]",EC50,[1],0.5 to 1 µM
"CC(C)C[C@H](NC(=O)C(=O)NCCc1ccccc1)C(=O)N[C@@H](C[C@@H]1CCNC1=O)C(=O)COc1c(F)c(F)cc(F)c1F [Compound 41, N1-((S)-4-methyl-1-oxo-1-(((S)-3-oxo-1-((S)-2-oxopyrrolidin-3-yl)-4-(2,3,5,6-tetrafluorophenoxy)butan-2-yl)amino)pentan-2-yl)-N2-phenethyloxalamide]",EC50,[1],0.05 to 0.2 µM
"COc1ccccc1[C@@H](O)C(=O)N1C[C@H]2[C@@H]([C@H]1C(=O)N[C@@H](C[C@@H]1CCNC1=O)C(=O)COC(F)(F)F)C2(C)C [Compound 382, (1R,2S,5S)-3-((R)-2-hydroxy-2-(2-methoxyphenyl)acetyl)-6,6-dimethyl-N-((S)-3-oxo-1-((S)-2-oxopyrrolidin-3-yl)-4-(trifluoromethoxy)butan-2-yl)-3-azabicyclo-[3.1.0]hexane-2-carboxamide]",EC50,[1],< 0.05 µM
"CC(C)C[C@H](NC(=O)C(=O)Nc1cc(F)ccc1F)C(=O)N[C@@H](C[C@@H]1CCNC1=O)C(=O)COc1c(F)c(F)cc(F)c1F [Compound 72, Nl-(2,5-difluorophenyl)-N2-((S)-4-methyl-1-oxo-1-(((S)-3-oxo-1-((S)-2-oxopyrrolidin-3-yl)-4-(2,3,5,6-tetrafluorophenoxy)butan-2-yl)amino)pentan-2-yl)oxalamide]",EC50,[1],0.05 to 0.2 µM
"O=C(Nc1ccccc1)C(=O)N[C@@H](CC1CCC1)C(=O)N[C@@H](C[C@@H]1CCNC1=O)C(=O)COc1c(F)c(F)cc(F)c1F [Compound 31, N1-((S)-3-cyclobutyl-1-oxo-1-(((S)-3-oxo-1-((S)-2-oxopyrrolidin-3-yl)-4-(2,3,5,6-tetra-fluorophenoxy)butan-2-yl)amino)propan-2-yl)-N2-phenyloxalamide]",EC50,[1],< 0.05 µM
"CC(C)C[C@H](CC(=O)NCc1ccccc1F)C(=O)N[C@@H](C[C@@H]1CCNC1=O)C(=O)COc1c(F)c(F)cc(F)c1F [Compound 54, (R)-N4-(2-fluorobenzyl)-2-isobutyl-N1-((S)-3-oxo-1-((S)-2-oxopyrrolidin-3-yl)-4-(2,3,5,6-tetrafluorophenoxy)butan-2-yl)succinamide]",EC50,"Severe acute respiratory syndrome coronavirus 2, HeLa-ACE2, 24 h, read-out: EC50, uM (Hela)",> 1 µM
"O=C(N[C@@H](CC1CC1)C(=O)N[C@@H](C[C@@H]1CCNC1=O)C(=O)COC(F)(F)F)c1cc(-c2ccccc2F)on1 [Compound 160, N-((S)-3-cyclopropyl-1-oxo-1-(((S)-3-oxo-1-((S)-2-oxopyrrolidin-3-yl)-4-(trifluoromethoxy)butan-2-yl)amino)propan-2-yl)-5-(2-fluorophenyl)isoxazole-3-carboxamide]",EC50,[1],< 0.05 µM
"O=C(Nc1ccccc1)C(=O)N[C@@H](CC1CC1)C(=O)N[C@@H](C[C@@H]1CCNC1=O)C(=O)COc1c(F)c(F)cc(F)c1F [Compound 30, N1-((S)-3-cyclopropyl-1-oxo-1-(((S)-3-oxo-1-((S)-2-oxopyrrolidin-3-yl)-4-(2,3,5,6-tetrafluorophenoxy)butan-2-yl)amino)propan-2-yl)-N2-phenyloxalamide]",EC50,[1],< 0.05 µM
"CC(C)C[C@H](NC(=O)c1nc2ccccc2[nH]1)C(=O)N[C@@H](C[C@@H]1CCNC1=O)C(=O)COC(F)(F)F [Compound 156, N-((S)-4-methyl-1-oxo-1-(((S)-3-oxo-1-((S)-2-oxopyrrolidin-3-yl)-4-(trifluoromethoxy)butan-2-yl)amino)pentan-2-yl)-1H-benzo[d]imidazole-2-carboxamide]",EC50,[1],< 0.05 µM
"O=C(Cc1ccccc1)O[C@@H](C(=O)N1C[C@@H]2CCC[C@@H]2[C@H]1C(=O)N[C@@H](C[C@@H]1CCNC1=O)C(=O)COC(F)(F)F)c1ccccc1F [Compound 622, (R)-1-(2-fluorophenyl)-2-oxo-2-((1S,3aR,6aS)-1-(((S)-3-oxo-1-((S)-2-oxopyrrolidin-3-yl)-4-(trifluoromethoxy)butan-2-yl)carbamoyl)hexahydrocyclopenta[c]-pyrrol-2(1H)-yl)ethyl 2-phenylacetate]",EC50,"Severe acute respiratory syndrome coronavirus 2, HeLa-ACE2, 24 h; read-out: EC50, uM (Hela)",0.05 to 0.2 µM
"O=C1NCC[C@H]1C[C@H](NC(=O)[C@@H]1CC2(CC2)CN1C(=O)[C@@H](O)C(F)(F)F)C(=O)COC(F)(F)F [Compound 387, (S)-N-((S)-3-oxo-1-((S)-2-oxopyrrolidin-3-yl)-4-(trifluoromethoxy)butan-2-yl)-5-((R)-3,3,3-trifluoro-2-hydroxypropanoyl)-5-azaspiro[2.4]-heptane-6-carboxamide]",EC50,[1],0.05 to 0.2 µM
"CC(C)C[C@H](NC(=O)C(=O)NC1CCCCC1)C(=O)N[C@@H](C[C@@H]1CCNC1=O)C(=O)COC(F)(F)F [Compound 163, N1-cyclohexyl-N2-((S)-4-methyl-1-oxo-1-(((S)-3-oxo-1-((S)-2-oxopyrrolidin-3-yl)-4-(trifluoromethoxy)butan-2-yl)amino)pentan-2-yl)oxalamide]",EC50,[1],< 0.05 µM
"COc1cccc2[nH]c(C(=O)N3C[C@@H]4CCC[C@@H]4[C@H]3C(=O)N[C@@H](C[C@@H]3CCNC3=O)C(=O)COC(F)(F)F)cc12 [Compound 608, (1S,3aR,6aS)-2-(4-methoxy-1H-indole-2-carbonyl)-N-((S)-3-oxo-1-((S)-2-oxopyrrolidin-3-yl)-4-(trifluoromethoxy)butan-2-yl)octahydrocyclopenta[c]pyrrole-1-carboxamide]",EC50,[2],< 0.05 µM
"CCC(OC)C(=O)N1CC2(CC2)C[C@H]1C(=O)N[C@@H](C[C@@H]1CCNC1=O)C(=O)COC(F)(F)F (stereo partly drawn) [Compound 758, (6S)-5-(2-methoxybutanoyl)-N-((S)-3-oxo-1-((S)-2-oxopyrrolidin-3-yl)-4-(trifluoromethoxy)butan-2-yl)-5-azaspiro[2.4]heptane-6-carboxamide]",EC50,[2],0.2 to 0.5 µM
"O=C1NCC[C@H]1C[C@H](NC(=O)[C@@H]1[C@H]2CCC[C@H]2CN1C(=O)c1cc(C(F)F)on1)C(=O)COC(F)(F)F [Compound 500, (1S,3aR,6aS)-2-(5-(difluoromethyl)-isoxazole-3-carbonyl)-N-((S)-3-oxo-1-((S)-2-oxopyrrolidin-3-yl)-4-(trifluoromethoxy)butan-2-yl)octahydrocyclo-penta[c]pyrrole-1-carboxamide]",EC50,[2],< 0.05 µM
"O=C1NCC[C@H]1C[C@H](NC(=O)[C@@H]1CC2(CC2)CN1C(=O)[C@@H](O)c1ccccc1)C(=O)COC(F)(F)F [Compound 415, (S)-5-((S)-2-hydroxy-2-phenylacetyl)-N-((S)-3-oxo-1-((S)-2-oxopyrrolidin-3-yl)-4-(trifluoromethoxy)butan-2-yl)-5-azaspiro[2.4]heptane-6-carboxamide]",EC50,[2],0.05 to 0.2 µM
"Cc1cccc(C)c1NC(=O)C(=O)N[C@@H](CC(C)C)C(=O)N[C@@H](C[C@@H]1CCNC1=O)C(=O)COc1c(F)c(F)cc(F)c1F [Compound 64, N1-(2,6-dimethylphenyl)-N2-((S)-4-methyl-1-oxo-1-(((S)-3-oxo-1-((S)-2-oxopyrrolidin-3-yl)-4-(2,3,5,6-tetrafluorophenoxy)butan-2-yl)amino)pentan-2-yl)oxalamide]",EC50,[1],< 0.05 µM
"C[C@@H](C[C@@H](O)C(=O)N1CC2(CC2)C[C@H]1C(=O)N[C@@H](C[C@@H]1CCNC1=O)C(=O)COC(F)(F)F)C(F)(F)F [Compound 427, (S)-N-((S)-3-oxo-1-((S)-2-oxopyrrolidin-3-yl)-4-(trifluoromethoxy)butan-2-yl)-5-((2R,4S)-5,5,5-trifluoro-2-hydroxy-4-methylpentanoyl)-5-azaspiro[2.4]heptane-6-carboxamide]",EC50,[2],< 0.05 µM
"CC(C)[C@H](O)CC(=O)N1CC2(CC2)C[C@H]1C(=O)N[C@@H](C[C@@H]1CCNC1=O)C(=O)COC(F)(F)F [Compound 431, (S)-5-((R)-3-hydroxy-4-methylpentanoyl)-N-((S)-3-oxo-1-((S)-2-oxopyrrolidin-3-yl)-4-(trifluoromethoxy)butan-2-yl)-5-azaspiro[2.4]heptane-6-carboxamide]",EC50,[2],0.05 to 0.2 µM
"O=C1NCC[C@H]1C[C@H](NC(=O)[C@@H]1CC2(CC2)CN1C(=O)C1CCOCC1)C(=O)COC(F)(F)F [Compound 682, (S)-N-((S)-3-oxo-1-((S)-2-oxopyrrolidin-3-yl)-4-(trifluoromethoxy)butan-2-yl)-5-(tetrahydro-2H-pyran-4-carbonyl)-5-azaspiro[2.4]heptane-6-carboxamide]",EC50,[2],0.2 to 0.5 µM
"Cc1cccnc1NC(=O)C(=O)N1C[C@@H]2CCC[C@@H]2[C@H]1C(=O)N[C@@H](C[C@@H]1CCNC1=O)C(=O)COC(F)(F)F [Compound 550, (1S,3aR,6aS)-2-(2-((3-methylpyridin-2-yl)amino)-2-oxoacetyl)-N-((S)-3-oxo-1-((S)-2-oxopyrrolidin-3-yl)-4-(trifluoromethoxy)butan-2-yl)octahydrocyclo-penta[c]pyrrole-1-carboxamide]",EC50,"Severe acute respiratory syndrome coronavirus 2, HeLa-ACE2, 24 h, HeLa-ACE2 cells, SARS-CoV-2 infection, 24 h; given as bound; read-out: EC50, uM (Hela)",> 1 µM
"CC(C)C[C@H](NC(=O)CNC1(C(F)(F)F)CC1)C(=O)N[C@@H](C[C@@H]1CCNC1=O)C(=O)COC(F)(F)F [Compound 434, (S)-4-methyl-N-((S)-3-oxo-1-((S)-2-oxopyrrolidin-3-yl)-4-(trifluoromethoxy)butan-2-yl)-2-(2-((1-(trifluoromethyl)-cyclopropyl)amino)-acetamido)pentanamide]",EC50,[2],< 0.05 µM
"O=C1NCC[C@H]1C[C@H](NC(=O)[C@@H]1C[C@@H](c2ccccc2)CN1C(=O)[C@H](O)c1ccccc1)C(=O)COC(F)(F)F [Compound 786, (2S,4S)-1-((R)-2-hydroxy-2-phenylacetyl)-N-((S)-3-oxo-1-((S)-2-oxopyrrolidin-3-yl)-4-(trifluoromethoxy)butan-2-yl)-4-phenylpyrrolidine-2-carboxamide]",EC50,[2],0.05 to 0.2 µM
